Assay [1] concerns reactive oxygen species (ROS) level. Description: Effect of 1 mM trolox on reactive oxygen species (ROS) level. Format: cell-based, E. coli. The text has this: (§1) The functional defects of proteins, correlating with their oxidative damage (carbonylation), can be suppressed by antioxidants in proportion to the extent of the decrease in protein carbonylation. This is illustrated by the effects of trolox (6-hydroxy-2,5,7,8-tetramethylchroman-2-carboxylic acid) on the reduction of ROS species levels and PC levels as given in Table 2.

In assay [2] the test system is protein carbonylation (PC) amount. As to the kind of experiment: Effect of 1 mM trolox on protein carbonylation (PC) amount. Format: cell-based, E. coli.
Description: as §1
The procedure for the quantification of protein carbonylation by ELISA method is as follows. The steps of protein extraction are as described in Example 1 (steps 1 and 2). Protein […] concentration is determined and adjusted so that the proteins are loaded into ELISA wells at 10 μg/mL. Adsorbed proteins are derivatized by using 12 μg/mL DNPH. Derivatization of adsorbed proteins is followed by detection of derivatized dinitrophenol (DNP)-carbonyl by a rabbit anti-DNP primary antibody (Sigma, D9656) and goat anti-rabbit secondary antibody conjugated to HRP (Jackson ImmunoResearch, 111-035-14). Stocks of antibodies were prepared at ˜1 ug/uL and used at 1:7000 dilutions.

Consider `Cc1c(C)c2c(c(C)c1O)CCC(C)(C(=O)O)O2` (stereo not drawn) [trolox, 6-hydroxy-2,5,7,8-tetramethylchroman-2-carboxylic acid], for which the ROS reduction was 0.41 in assay [1] (strain wt), 0.41 in assay [1] (strain ΔdnaK) and 0.45 in assay [1] (strain Δtig). Also, the results for the PC reduction in assay [2] (strain wt), in assay [2] (strain ΔdnaK) and in assay [2] (strain Δtig) were 0.26, 0.25 and 0.33, respectively.

Source of the values: patent US20140227741A1, “Biological Systems for Production of Highest Quality Proteins” (Mediterranean Institute for Life Sciences, priority 2012, published 2014).
